Source: ChEMBL document CHEMBL1811886 (J Med Chem, 2011)

Key:
Histamine H3 receptor [1] = molecular target: T1, Histamine H3 receptor (Rattus norvegicus, UniProt Q9QYN8); assay: Displacement of [3H]NAMH from rat histamine H3 receptor expressed in CHO cells; assay type: cell-based
[2] = Terminal half life in fasted Sprague-Dawley rat at 1 mg/kg, iv after 6 to 24 hrs by LC-MS/MS analysis; assay type: ADME, organism-based; design: dose 1 mg/kg, route intravenous; conditions: in vivo, read-out: beta t1/2 (converted)
Histamine H3 receptor [3] = molecular target: T2, Histamine H3 receptor (Homo sapiens, UniProt Q9Y5N1); assay: Displacement of [3H]NAMH from human histamine H3 receptor expressed in CHO cells; assay type: cell-based
T2 sequence (Q9Y5N1 whole entry): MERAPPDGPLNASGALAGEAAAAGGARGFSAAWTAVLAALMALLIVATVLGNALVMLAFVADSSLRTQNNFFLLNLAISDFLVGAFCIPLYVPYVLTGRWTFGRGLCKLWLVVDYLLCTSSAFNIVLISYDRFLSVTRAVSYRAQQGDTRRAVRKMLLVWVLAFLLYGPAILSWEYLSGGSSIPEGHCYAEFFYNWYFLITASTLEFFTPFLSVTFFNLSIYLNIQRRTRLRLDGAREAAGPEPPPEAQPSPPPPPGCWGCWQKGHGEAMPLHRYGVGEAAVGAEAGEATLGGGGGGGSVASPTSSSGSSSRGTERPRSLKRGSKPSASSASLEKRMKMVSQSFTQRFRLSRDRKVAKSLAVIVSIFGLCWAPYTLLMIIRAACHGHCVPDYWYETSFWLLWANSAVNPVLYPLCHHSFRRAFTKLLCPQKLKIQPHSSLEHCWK

[4] = Systemic clearance in fasted Sprague-Dawley rat at 1 mg/kg, iv after 6 to 24 hrs by LC-MS/MS analysis; assay type: ADME, organism-based; design: dose 1 mg/kg, route intravenous; conditions: in vivo
[5] = Ratio of drug uptake in brain to plasma of fasted Sprague-Dawley rat at 1 mg/kg, iv after 6 to 24 hrs by LC-MS/MS analysis; assay type: ADME, organism-based; design: dose 1 mg/kg, route intravenous; conditions: read-out: BPR
[6] = Oral bioavailability in fasted Sprague-Dawley rat at 5 mg/kg after 6 hrs by LC-MS/MS analysis; assay type: ADME, organism-based; conditions: in vivo
[7] = molecular target: Voltage-gated inwardly rectifying potassium channel KCNH2 (Homo sapiens, UniProt Q12809); assay: Inhibition of recombinant human ERG channel expressed in human HEK 293 cells by patch clamp assay; assay type: cell-based, HEK293
Sequence of Voltage-gated inwardly rectifying potassium channel KCNH2 (Q12809 whole entry): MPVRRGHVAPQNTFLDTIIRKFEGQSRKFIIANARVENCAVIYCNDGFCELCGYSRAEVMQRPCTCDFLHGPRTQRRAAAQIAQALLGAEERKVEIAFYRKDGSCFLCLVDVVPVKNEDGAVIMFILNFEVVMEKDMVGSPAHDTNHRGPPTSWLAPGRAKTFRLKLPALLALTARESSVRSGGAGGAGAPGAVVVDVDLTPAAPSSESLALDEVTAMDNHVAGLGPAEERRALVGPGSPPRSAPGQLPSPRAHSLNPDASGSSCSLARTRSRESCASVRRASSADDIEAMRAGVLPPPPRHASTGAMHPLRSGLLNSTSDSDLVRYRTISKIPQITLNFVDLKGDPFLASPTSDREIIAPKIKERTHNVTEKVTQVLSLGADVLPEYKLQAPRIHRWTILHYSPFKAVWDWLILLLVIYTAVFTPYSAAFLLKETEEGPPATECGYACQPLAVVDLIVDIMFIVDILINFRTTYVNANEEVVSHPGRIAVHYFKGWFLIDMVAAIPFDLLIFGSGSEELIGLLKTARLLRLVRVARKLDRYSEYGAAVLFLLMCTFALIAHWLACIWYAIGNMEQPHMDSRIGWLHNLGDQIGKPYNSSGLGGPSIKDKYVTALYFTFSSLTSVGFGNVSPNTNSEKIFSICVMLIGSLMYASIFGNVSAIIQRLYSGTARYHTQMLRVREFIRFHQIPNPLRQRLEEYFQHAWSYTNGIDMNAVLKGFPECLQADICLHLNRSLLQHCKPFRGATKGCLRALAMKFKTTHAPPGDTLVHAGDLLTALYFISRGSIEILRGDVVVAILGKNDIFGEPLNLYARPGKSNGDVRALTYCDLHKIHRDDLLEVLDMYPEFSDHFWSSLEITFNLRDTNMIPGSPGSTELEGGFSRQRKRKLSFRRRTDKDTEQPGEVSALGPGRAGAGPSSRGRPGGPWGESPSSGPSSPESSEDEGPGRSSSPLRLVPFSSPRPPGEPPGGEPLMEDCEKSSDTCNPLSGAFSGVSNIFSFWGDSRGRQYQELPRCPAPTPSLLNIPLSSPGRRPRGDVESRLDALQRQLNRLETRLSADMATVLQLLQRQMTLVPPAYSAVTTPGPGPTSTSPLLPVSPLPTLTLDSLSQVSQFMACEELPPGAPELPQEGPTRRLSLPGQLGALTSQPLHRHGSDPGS

[8] = Oral bioavailability in fasted Sprague-Dawley rat at 10 mg/kg after 24 hrs by LC-MS/MS analysis; assay type: ADME, organism-based; conditions: in vivo
Histamine H3 receptor [9] = molecular target: T2, Histamine H3 receptor; assay: Inverse agonist activity at human histamine H3 receptor assessed as inhibition of R-alpha-methylhistamine induced [35S]GTPgammaS binding; assay type: functional
Histamine H3 receptor [10] = molecular target: T1, Histamine H3 receptor; assay: Inverse agonist activity at rat histamine H3 receptor assessed as inhibition of R-alpha-methylhistamine induced [35S]GTPgammaS binding; assay type: functional
Histamine H3 receptor [11] = molecular target: T2, Histamine H3 receptor; assay: Antagonist activity against human histamine H3 receptor assessed as inhibition of R-alpha-methylhistamine induced [35S]GTPgammaS binding; assay type: functional
Rattus norvegicus = assay: Inhibition of RAMH-induced dipsogenia in Long Evans rat administered as po 15 mins prior to RAMH challenge; assay type: functional
[12] = Clearance in cynomolgus monkey at 1 mg/kg, iv after 6 to 24 hrs by LC-MS/MS analysis; assay type: ADME, organism-based, Macaca fascicularis; design: dose 1 mg/kg, route intravenous; conditions: in vivo
[13] = Clearance in Beagle dog at 1 mg/kg, iv after 6 to 24 hrs by LC-MS/MS analysis; assay type: ADME, organism-based, Canis lupus familiaris; design: dose 1 mg/kg, route intravenous; conditions: in vivo
[14] = Metabolic stability of compound in rat liver microsomes assessed as compound remaining at 40 mins; assay type: ADME, Microsome; conditions: read-out: Stability
[15] = Metabolic stability of compound in rat liver microsomes assessed as half life; assay type: ADME, Microsome
Cytochrome P450 2C19 = Cytochrome P450 2C19 (Homo sapiens, UniProt P33261); assay: Inhibition of CYP2C19; assay type: ADME
Sequence of Cytochrome P450 2C19 (P33261 whole entry): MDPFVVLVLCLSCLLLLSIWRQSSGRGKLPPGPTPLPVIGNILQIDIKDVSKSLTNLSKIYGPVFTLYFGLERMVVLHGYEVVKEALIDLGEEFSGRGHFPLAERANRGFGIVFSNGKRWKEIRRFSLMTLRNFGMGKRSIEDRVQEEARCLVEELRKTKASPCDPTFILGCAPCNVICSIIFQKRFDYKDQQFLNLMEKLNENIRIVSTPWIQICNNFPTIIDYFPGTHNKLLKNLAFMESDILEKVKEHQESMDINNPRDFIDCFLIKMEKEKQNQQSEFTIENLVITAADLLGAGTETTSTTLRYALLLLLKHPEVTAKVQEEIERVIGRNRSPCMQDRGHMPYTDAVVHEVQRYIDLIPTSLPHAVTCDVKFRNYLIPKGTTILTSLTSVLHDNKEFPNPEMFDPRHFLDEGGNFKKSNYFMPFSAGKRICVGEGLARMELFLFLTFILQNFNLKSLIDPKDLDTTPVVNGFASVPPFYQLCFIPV

[16] = Plasma protein binding in Beagle dog after 1 hr by LC/MS/MS analysis; assay type: ADME, cell-free, Canis lupus familiaris; conditions: read-out: PPB (converted)
Liver = assay: Clearance in Sprague-Dawley rat liver at 10 mg/kg, po administered as single dose after 24 hrs by LC-MS/MS analysis; assay type: ADME, organism-based; design: dose 10 mg/kg, route oral; conditions: in vivo
[17] = Terminal half life in cynomolgus monkey at 1 mg/kg, iv after 6 to 24 hrs by LC-MS/MS analysis; assay type: ADME, organism-based, Macaca fascicularis; design: dose 1 mg/kg, route intravenous; conditions: in vivo, read-out: beta t1/2 (converted)
[18] = Plasma protein binding in human after 1 hr by LC/MS/MS analysis; assay type: ADME, cell-free; conditions: read-out: PPB (converted)
[19] = AUC in Beagle dog at 3 mg/kg, po after 6 to 24 hrs by LC-MS/MS analysis; assay type: ADME, organism-based, Canis lupus familiaris; design: dose 3 mg/kg, route oral; conditions: plasma
[20] = Metabolic stability of compound in human liver microsomes assessed as half life; assay type: ADME, Microsome
[21] = Metabolic stability of compound in dog liver microsomes assessed as half life; assay type: ADME, Canis lupus familiaris, Microsome
Spleen = assay: Clearance in Sprague-Dawley rat spleen at 10 mg/kg, po administered as single dose after 24 hrs by LC-MS/MS analysis; assay type: ADME, organism-based; design: dose 10 mg/kg, route oral; conditions: in vivo
[22] = Terminal half life in fasted Sprague-Dawley rat at 3 mg/kg, po after 6 to 24 hrs by LC-MS/MS analysis; assay type: ADME, organism-based; design: dose 3 mg/kg, route oral; conditions: in vivo, read-out: beta t1/2 (converted)
[23] = Oral bioavailability in Beagle dog at 3 mg/kg after 6 to 24 hrs by LC-MS/MS analysis; assay type: ADME, organism-based, Canis lupus familiaris; conditions: in vivo
[24] = Oral bioavailability in fasted Sprague-Dawley rat at 3 mg/kg, po after 6 to 24 hrs by LC-MS/MS analysis; assay type: ADME, organism-based; conditions: in vivo
Cytochrome P450 1A2 = Cytochrome P450 1A2 (Homo sapiens, UniProt P05177); assay: Inhibition of CYP1A2; assay type: ADME
Sequence of Cytochrome P450 1A2 (P05177 whole entry): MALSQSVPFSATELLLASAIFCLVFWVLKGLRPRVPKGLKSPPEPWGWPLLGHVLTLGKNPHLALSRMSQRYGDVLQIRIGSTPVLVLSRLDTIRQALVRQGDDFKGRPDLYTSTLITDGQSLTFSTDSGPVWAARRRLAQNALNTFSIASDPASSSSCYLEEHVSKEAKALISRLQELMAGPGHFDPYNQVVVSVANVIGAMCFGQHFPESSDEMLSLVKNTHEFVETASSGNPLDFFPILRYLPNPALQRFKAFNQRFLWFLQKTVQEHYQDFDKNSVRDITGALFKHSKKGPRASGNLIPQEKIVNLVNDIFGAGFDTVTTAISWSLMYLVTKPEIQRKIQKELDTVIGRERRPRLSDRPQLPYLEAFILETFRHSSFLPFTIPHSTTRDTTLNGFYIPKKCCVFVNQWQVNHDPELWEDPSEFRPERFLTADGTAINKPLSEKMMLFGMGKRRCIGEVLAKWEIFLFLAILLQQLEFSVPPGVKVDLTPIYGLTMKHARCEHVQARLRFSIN

[25] = AUC in cynomolgus monkey at 1 mg/kg, po after 6 to 24 hrs by LC-MS/MS analysis; assay type: ADME, organism-based, Macaca fascicularis; design: dose 1 mg/kg, route oral; conditions: plasma
[26] = Cmax in fasted Sprague-Dawley rat at 3 mg/kg, po after 6 to 24 hrs by LC-MS/MS analysis; assay type: ADME, organism-based; design: dose 3 mg/kg, route oral; conditions: in vivo
[27] = Terminal half life in Beagle dog at 3 mg/kg, po after 6 to 24 hrs by LC-MS/MS analysis; assay type: ADME, organism-based, Canis lupus familiaris; design: dose 3 mg/kg, route oral; conditions: in vivo, read-out: beta t1/2 (converted)
[28] = Ratio of drug uptake in brain to plasma of Beagle dog at 5 mg/kg, po after 6 to 24 hrs by LC-MS/MS analysis; assay type: ADME, organism-based, Canis lupus familiaris; design: dose 5 mg/kg, route oral; conditions: read-out: BPR
[29] = Plasma protein binding in rat after 1 hr by LC/MS/MS analysis; assay type: ADME, cell-free; conditions: read-out: PPB (converted)
Canis familiaris = assay: Cmax in Beagle dog at 3 mg/kg, po after 6 to 24 hrs by LC-MS/MS analysis; assay type: ADME, organism-based, Canis lupus familiaris; design: dose 3 mg/kg, route oral; conditions: in vivo
[30] = AUC in fasted Sprague-Dawley rat at 3 mg/kg, po after 6 to 24 hrs by LC-MS/MS analysis; assay type: ADME, organism-based; design: dose 3 mg/kg, route oral; conditions: plasma
[31] = Volume of distribution in Beagle dog at 1 mg/kg, iv after 6 to 24 hrs by LC-MS/MS analysis; assay type: ADME, organism-based, Canis lupus familiaris; design: dose 1 mg/kg, route intravenous; conditions: in vivo
[32] = Fraction unbound in rat brain; assay type: ADME, tissue-based
[33] = Volume of distribution in fasted Sprague-Dawley rat at 1 mg/kg, iv after 6 to 24 hrs by LC-MS/MS analysis; assay type: ADME, organism-based; design: dose 1 mg/kg, route intravenous; conditions: in vivo
Kidney = assay: Clearance in Sprague-Dawley rat kidney at 10 mg/kg, po administered as single dose after 24 hrs by LC-MS/MS analysis; assay type: ADME, organism-based; design: dose 10 mg/kg, route oral; conditions: in vivo
[34] = Volume of distribution in cynomolgus monkey at 1 mg/kg, iv after 6 to 24 hrs by LC-MS/MS analysis; assay type: ADME, organism-based, Macaca fascicularis; design: dose 1 mg/kg, route intravenous; conditions: in vivo
Lung = assay: Clearance in Sprague-Dawley rat lung at 10 mg/kg, po administered as single dose after 24 hrs by LC-MS/MS analysis; assay type: ADME, organism-based; design: dose 10 mg/kg, route oral; conditions: in vivo
[35] = Metabolic stability of compound in human liver microsomes assessed as compound remaining at 40 mins; assay type: ADME, Microsome; conditions: read-out: Stability
Cytochrome P450 2D6 = Cytochrome P450 2D6 (Homo sapiens, UniProt P10635); assay: Inhibition of CYP2D6; assay type: ADME
Sequence of Cytochrome P450 2D6 (P10635 whole entry): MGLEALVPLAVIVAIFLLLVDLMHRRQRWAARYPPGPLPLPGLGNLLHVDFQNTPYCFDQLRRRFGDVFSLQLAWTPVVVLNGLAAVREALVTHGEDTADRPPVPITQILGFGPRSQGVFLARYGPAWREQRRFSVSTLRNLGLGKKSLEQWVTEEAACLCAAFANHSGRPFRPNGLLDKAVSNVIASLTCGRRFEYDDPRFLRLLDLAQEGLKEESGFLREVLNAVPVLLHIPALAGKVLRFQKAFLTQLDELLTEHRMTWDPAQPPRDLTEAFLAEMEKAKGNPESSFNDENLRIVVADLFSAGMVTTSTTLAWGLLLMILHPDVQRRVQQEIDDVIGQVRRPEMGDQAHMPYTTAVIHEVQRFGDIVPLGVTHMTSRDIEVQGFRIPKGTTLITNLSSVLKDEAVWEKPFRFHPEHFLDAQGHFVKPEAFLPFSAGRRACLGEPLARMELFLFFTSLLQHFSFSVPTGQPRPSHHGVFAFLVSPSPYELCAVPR

Cytochrome P450 3A4 = Cytochrome P450 3A4 (Homo sapiens, UniProt P08684); assay: Inhibition of CYP3A4; assay type: ADME
Sequence of Cytochrome P450 3A4 (P08684 whole entry): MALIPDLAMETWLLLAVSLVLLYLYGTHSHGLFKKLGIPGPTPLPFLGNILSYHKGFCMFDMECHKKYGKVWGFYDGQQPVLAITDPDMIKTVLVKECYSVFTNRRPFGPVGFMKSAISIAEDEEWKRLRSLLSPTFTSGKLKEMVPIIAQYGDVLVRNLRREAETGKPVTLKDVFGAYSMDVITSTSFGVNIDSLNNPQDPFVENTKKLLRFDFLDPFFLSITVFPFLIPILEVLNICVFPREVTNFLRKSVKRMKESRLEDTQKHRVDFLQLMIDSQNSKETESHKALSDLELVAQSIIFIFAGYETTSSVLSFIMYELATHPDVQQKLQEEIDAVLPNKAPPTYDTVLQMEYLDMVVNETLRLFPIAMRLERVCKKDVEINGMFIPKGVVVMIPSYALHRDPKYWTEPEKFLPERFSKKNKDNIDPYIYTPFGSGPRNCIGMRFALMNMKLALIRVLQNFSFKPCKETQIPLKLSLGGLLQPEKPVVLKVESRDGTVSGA

[36] = Oral bioavailability in cynomolgus monkey at 1 mg/kg after 6 to 24 hrs by LC-MS/MS analysis; assay type: ADME, organism-based, Macaca fascicularis; conditions: in vivo
[37] = Terminal half life in Beagle dog at 1 mg/kg, iv after 6 to 24 hrs by LC-MS/MS analysis; assay type: ADME, organism-based, Canis lupus familiaris; design: dose 1 mg/kg, route intravenous; conditions: in vivo, read-out: beta t1/2 (converted)
[38] = Metabolic stability of compound in mouse liver microsomes assessed as half life; assay type: ADME, Microsome
[39] = Terminal half life in cynomolgus monkey at 1 mg/kg, po after 6 to 24 hrs by LC-MS/MS analysis; assay type: ADME, organism-based, Macaca fascicularis; design: dose 1 mg/kg, route oral; conditions: in vivo, read-out: beta t1/2 (converted)
Cytochrome P450 2C9 = Cytochrome P450 2C9 (Homo sapiens, UniProt P11712); assay: Inhibition of CYP2C9; assay type: ADME
Sequence of Cytochrome P450 2C9 (P11712 whole entry): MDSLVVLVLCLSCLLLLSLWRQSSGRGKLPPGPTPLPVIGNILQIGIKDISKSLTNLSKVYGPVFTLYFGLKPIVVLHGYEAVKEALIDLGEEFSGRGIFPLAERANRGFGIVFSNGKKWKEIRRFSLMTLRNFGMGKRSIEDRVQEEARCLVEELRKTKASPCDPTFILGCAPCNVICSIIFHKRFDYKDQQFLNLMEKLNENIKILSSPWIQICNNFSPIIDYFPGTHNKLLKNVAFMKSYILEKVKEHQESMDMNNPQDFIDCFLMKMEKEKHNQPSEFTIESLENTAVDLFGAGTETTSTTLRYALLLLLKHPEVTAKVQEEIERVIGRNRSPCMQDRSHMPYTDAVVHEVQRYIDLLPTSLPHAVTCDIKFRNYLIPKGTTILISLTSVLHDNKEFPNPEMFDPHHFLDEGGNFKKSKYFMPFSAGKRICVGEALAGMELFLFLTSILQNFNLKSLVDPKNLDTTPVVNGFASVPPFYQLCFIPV

Plasma = assay: Clearance in Sprague-Dawley rat plasma at 10 mg/kg, po administered as single dose after 24 hrs by LC-MS/MS analysis; assay type: ADME, organism-based; design: dose 10 mg/kg, route oral; conditions: in vivo
[40] = Metabolic stability of compound in dog liver microsomes assessed as compound remaining at 40 mins; assay type: ADME, Canis lupus familiaris, Microsome; conditions: read-out: Stability
Heart = assay: Clearance in Sprague-Dawley rat heart at 10 mg/kg, po administered as single dose after 24 hrs by LC-MS/MS analysis; assay type: ADME, organism-based; design: dose 10 mg/kg, route oral; conditions: in vivo
[41] = Metabolic stability of compound in mouse liver microsomes assessed as compound remaining at 40 mins; assay type: ADME, Microsome; conditions: read-out: Stability
Brain = assay: Clearance in Sprague-Dawley rat brain at 10 mg/kg, po administered as single dose after 24 hrs by LC-MS/MS analysis; assay type: ADME, organism-based; design: dose 10 mg/kg, route oral; conditions: in vivo
[42] = Cmax in cynomolgus monkey at 1 mg/kg, po after 6 to 24 hrs by LC-MS/MS analysis; assay type: ADME, organism-based, Macaca fascicularis; design: dose 1 mg/kg, route oral; conditions: in vivo

T1 sequence (Q9QYN8 whole entry): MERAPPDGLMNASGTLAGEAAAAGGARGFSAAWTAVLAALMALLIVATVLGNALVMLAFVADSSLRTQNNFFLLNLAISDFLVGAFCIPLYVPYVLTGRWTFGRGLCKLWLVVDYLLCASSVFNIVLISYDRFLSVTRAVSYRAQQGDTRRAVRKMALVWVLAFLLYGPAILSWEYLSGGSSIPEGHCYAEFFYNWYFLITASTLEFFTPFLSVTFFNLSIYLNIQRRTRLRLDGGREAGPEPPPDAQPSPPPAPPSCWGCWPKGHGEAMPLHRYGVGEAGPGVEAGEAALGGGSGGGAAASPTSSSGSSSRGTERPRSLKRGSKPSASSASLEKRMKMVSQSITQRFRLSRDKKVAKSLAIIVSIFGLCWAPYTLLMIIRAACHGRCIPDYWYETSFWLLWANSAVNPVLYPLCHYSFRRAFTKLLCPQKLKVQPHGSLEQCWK

SMILES: Cn1nc(-c2ccc(OCCCN3CCCCC3)cc2)ccc1=O
- Ki (Histamine H3 receptor [1]): 106 nM
- half-life [2]: 1.2 h
- Ki (Histamine H3 receptor [3]): 21 nM
- clearance [4]: 50 mL/min/kg
- Kp [5]: 5.3
- bioavailability [6]: 22%

SMILES: C[C@@H]1CCCN1CCCOc1ccc(-c2cn[nH]c(=O)c2)cc1
- Ki (Histamine H3 receptor [1]): 8.5 nM
- IC50 [7]: 9500 nM
- half-life [2]: 1 h
- bioavailability [8]: 24%
- EC50 (Histamine H3 receptor [9]): 1.1 nM
- Ki (Histamine H3 receptor [3]): 2.8 nM
- clearance [4]: 9.6 mL/min/kg
- EC50 (Histamine H3 receptor [10]): 2.1 nM
- Kb (Histamine H3 receptor [11]): 0.4 nM
- Kp [5]: 1.8
- ED50 (Rattus norvegicus): 0.03 mg/kg

SMILES: C[C@@H]1CCCN1CCCOc1ccc(-c2ccc(=O)[nH]n2)cc1.Cl [IRDABISANT HYDROCHLORIDE]
- clearance [12]: 7.7 mL/min/kg
- clearance [13]: 13.2 mL/min/kg
- remaining at 40 min [14]: > 98%
- half-life [15]: > 0.667 h
- IC50 (Cytochrome P450 2C19): > 30000 nM
- fraction unbound at 1 h [16]: 0.68
- CL (Liver): > 98%
- half-life [17]: 5.4 h
- fraction unbound at 1 h [18]: 0.56
- AUC [19]: 1190 ng·h/mL
- half-life [2]: 2.6 h
- half-life [20]: > 0.667 h
- half-life [21]: > 0.667 h
- CL (Spleen): > 98%
- half-life [22]: 2.9 h
- bioavailability [23]: 22%
- bioavailability [24]: 83%
- IC50 (Cytochrome P450 1A2): > 30000 nM
- AUC [25]: 1920 ng·h/mL
- Cmax [26]: 270 ng/mL
- half-life [27]: 2.7 h
- Kp [28]: 2.4
- fraction unbound at 1 h [29]: 0.61
- Cmax (Canis familiaris): 230 ng/mL
- clearance [4]: 42 mL/min/kg
- AUC [30]: 984 ng·h/mL
- Vd [31]: 3.5 L/kg
- fraction unbound [32]: 0.4
- Vd [33]: 9.4 L/kg
- CL (Kidney): > 98%
- Vd [34]: 3.8 L/kg
- CL (Lung): > 98%
- remaining at 40 min [35]: > 98%
- IC50 (Cytochrome P450 2D6): > 30000 nM
- Kp [5]: 2.6
- IC50 (Cytochrome P450 3A4): > 30000 nM
- bioavailability [36]: 83%
- half-life [37]: 2.9 h
- half-life [38]: > 0.667 h
- half-life [39]: 5 h
- IC50 (Cytochrome P450 2C9): > 30000 nM
- CL (Plasma): > 98%
- remaining at 40 min [40]: > 98%
- CL (Heart): > 98%
- remaining at 40 min [41]: > 98%
- CL (Brain): > 98%
- Cmax [42]: 760 ng/mL

SMILES: CC(C)n1nc(-c2ccc(OCCCN3CCC[C@H]3C)cc2)ccc1=O
- Ki (Histamine H3 receptor [1]): 7.6 nM
- half-life [2]: 0.3 h
- Ki (Histamine H3 receptor [3]): 4.8 nM
- clearance [4]: 258 mL/min/kg
- Kp [5]: 2.1
- bioavailability [6]: 5%
